Measured values from paper PMC11056026, “The Evaluation of Teleost-Derived Antimicrobial Peptides Against Neisseria gonorrhoeae” (Cureus, 2024).
Like-named read-outs stand apart in the source and are kept apart here. Residues, ends and D or L forms follow the SMILES beside them. No end group written: not given here.

Tests used:
[1] = test system: ME180 endocervical epithelial cells; details: 24 hours; for Cell survival of ME180 cells vs non-treatment control (CCK-8): 10 μg/mL AMP, three independent experiments
Description: ME180 cells were seeded into 96-well microtiter plates at a 5 × 10^3 cells/well density and incubated for 24 hours. A final concentration of 10 μg/mL of AMP and 0.1% of positive control Triton-X were added to the well and incubated for 24 hours. Next, the Cell Counting Kit-8 (CCK-8) solution (Tools Biotech Inc., New Taipei City, Taiwan) was added and incubated for one hour. The absorbance at 450 nm was measured in each well, and the cytotoxicity level was analyzed according to the manufacturer's instructions.
GC colonization and infection only start after the GC's adherence to epithelial cells in the reproductive tract. Thus, adherence plays a crucial role in the initial colonization of GC on mucosal surfaces. […] Since these AMP may also affect epithelial cell viability, examining the effects of three AMP on both epithelial cells, and GC adherence is needed. To examine the effects of AMP on epithelial cells, ME180 cells were incubated with or without 10 μg/mL AMP for 24 hours, and the CCK-8 cell viability assay was conducted. Triton-X, a membrane-disrupting agent at a final concentration of […], was administered as a positive control.
ME180 cells were grown on a 96-well plate, and 10 μg/mL of designated AMP was added with or without inoculating MS11. (A) To measure cell cytotoxicity, cells with or without AMP or 0.1% Triton-X were incubated for 24 hours, and CCK-8 assay was performed to determine the cell survival rate. (B) To evaluate GC adherence, cells with MS11 were incubated for three hours to determine the adherent GC. GC treated with 0.5 μg/mL of azithromycin (AZI) served as a positive control. Non-treated GC was served as control (Ct). The bars represented the means of each group with standard deviations. Statistical significance was determined using a one-way ANOVA followed by post hoc Dunnett's test.

[2] = test system: Neisseria gonorrhoeae MS11 strain; details: 24 h
Description: (§1) The synthetic AMP (Table 1) were purchased (Mission Bio, Taipei, Taiwan), and the inhibition activity test against GC was adapted from Bergman et al.. Briefly, GC were suspended in GCP broth to a concentration of 105 colony-forming units (CFU)/mL, and 180 μL of this suspension was added to each well of a 96-well plate with 20 μL peptide solution at various concentrations. The final concentration of AMP in each well ranged from 0.08 to 20 μg/mL. The samples were incubated at 37°C with 5% CO2 for 24 hours. After the incubation, 10 μL of the suspension from each well was spotted on GCK agar plates.

[3] = test system: WHO gonococcal reference strain Z (WHO Z); details: GCP broth, 10^5 CFU/mL, 24 h, 37°C, 5% CO2, lowest concentration reducing >=90% of bacteria vs non-AMP control, means of three independent experiments
Description: as §1

[4] = test system: WHO gonococcal reference strain Z (WHO Z); test: Antibiotic susceptibility testing, disk diffusion (CLSI); type: cell-based, Neisseria gonorrhoeae; set-up: key: R, resistant; I, intermediate; S, susceptible; details: CLSI criteria, 24 h, 37°C, 5% CO2
Description: (§2) Briefly, the overnight colonies (16-20 hours) were suspended and diluted in GCP broth to a concentration of optical density (OD) = 0.1 at 650 nm. The bacterial suspension was then plated onto GC agar plates using swabs, and the disks were placed on the bacterial lawn with sterile tweezers. The plates were incubated at 37°C with 5% CO2 for 24 hours. The diameter of the inhibition zone was measured to determine the susceptibility according to the criteria recommended by the CLSI standard.

[5] = test system: Neisseria gonorrhoeae MS11; test: Transmission electron microscopy of treated GC; type: cell-based; details: AMP 10 μg/mL or azithromycin 0.5 μg/mL, four hours
Description: The bars represented the means of each group with standard deviations.

[6] = test system: Neisseria gonorrhoeae MS11 strain; test: Antibiotic susceptibility testing, disk diffusion (CLSI); type: cell-based; set-up: key: R, resistant; I, intermediate; S, susceptible; details: CLSI criteria, 24 h, 37°C, 5% CO2
Description: as §2

[7] = test system: Neisseria gonorrhoeae MS11 adherence to ME180 endocervical epithelial cells; test: Adherence assay of GC to ME180 cells; type: cell-based; details: MS11 on ME180 cells, azithromycin 0.5 μg/mL, three hours
Description: Cells were then lysed with 1% saponin in sterile phosphate-buffered saline (PBS) and spread onto the GCK agar plate. The number of adherent GC was counted to determine the effect of AMP.
Non-treated GC was served as control (Ct).
To assess the effects of AMP on adherence, MS11 was inoculated onto ME180 cells in the presence or absence of AMP for three hours. The cells were then collected and plated on GCK agar. Adherent GC were determined by colony counts. Azithromycin was used as a control for comparison.

[8] = test system: Listeria monocytogenes; details: cited from earlier work
Description: (§3) [26], indicating the low efficacy of TH1-5. Piscidins were reported widely as the broadest teleost-derived AMP against several gram-positive and gram-negative species.

[9] = test system: Vibrio spp.; details: 100 μg/mL or above; cited from earlier work
Description: as §3

[10] = test system: HT1080 cells; details: HT1080, 15 μg/mL or more; cited from earlier work
[11] = test system: HeLa cells; details: cited from earlier work

With `CC(C)(C)CC(C)(C)c1ccc(OCCO)cc1` [Triton-X, reference compound] the “Decrease in cell survival of ME180 cells (CCK-8)” value ([1]; positive control, final concentration of 0.01% (0.1% elsewhere in the source)) was 88%.
For FIHHIIGGLFSVGKHIHSLIHGH [TP3], the “MIC of AMP” value [2] was >10 mg/L and the “MIC of AMP” value [3] was >20 mg/L.
In the case of “FIHHIIGGLFSAGKAIHRLIRRRRR [TP4] [listing 1 of 2 here]”, the “Cell survival of ME180 cells vs non-treatment control (CCK-8)” value [1] is reported as “No significant difference”.
For “FFHHIFRGIVHVGKTIHRLVTG [PIS] [listing 1 of 2 here]”, the “MIC of AMP” value [3] was 10 mg/L.
For “FFHHIFRGIVHVGKTIHRLVTG [PIS] [listing 2 of 2 here]”, the “Cell survival of ME180 cells vs non-treatment control (CCK-8)” value [1] was “No significant difference”.
With `CC[C@H]1OC(=O)[C@H](C)[C@@H](O[C@H]2C[C@@](C)(OC)[C@@H](O)[C@H](C)O2)[C@H](C)[C@@H](O[C@@H]2O[C@H](C)C[C@H](N(C)C)[C@H]2O)[C@](C)(O)C[C@@H](C)CN(C)[C@H](C)[C@@H](O)[C@]1(C)O` [Azithromycin] the Antibiotic susceptibility [4] was “R”, the “Morphological and structural changes of GC (TEM)” value [5] was “intact membranes” and the Antibiotic susceptibility [6] was “S”. The “Reduction of adherent GC compared to the AMP-treated group” value [7] was “significantly higher reduction”.
For `CO/N=C(\C(=O)N[C@@H]1C(=O)N2C(C(=O)O)=C(CSc3nc(=O)c(=O)[nH]n3C)CS[C@H]12)c1csc(N)n1` [Ceftriaxone], the Antibiotic susceptibility [4] was “I” and the Antibiotic susceptibility [6] was “S”.
For `CC[C@H](C)[C@H](NC(=O)CNC(=O)[C@@H]1CCCN1C(=O)[C@@H](NC(=O)[C@H](CS)NC(=O)[C@H](CS)NC(=O)CNC(=O)[C@H](CS)NC(=O)[C@H](CS)NC(=O)[C@H](Cc1ccccc1)NC(=O)[C@H](CCCNC(=N)N)NC(=O)[C@H](CS)NC(=O)[C@H](CCCCN)NC(=O)[C@@H](NC(=O)CN)[C@@H](C)CC)[C@@H](C)O)C(=O)N[C@@H](CS)C(=O)NCC(=O)N[C@H](C(=O)N[C@@H](CS)C(=O)N[C@@H](CS)C(=O)N[C@@H](CCCNC(=N)N)C(=O)N[C@@H](Cc1ccccc1)C(=O)O)C(C)C` [TH1-5] (H-GIKCRFCCGCCTPGICGVCCRF-OH; N-terminus and C-terminus assumed), the “Concentration exhibiting antibacterial activity” value [8] is given as ≥ 100 µg/mL, the Antibacterial activity [9] is given as “not” and the “MIC of AMP” value ([2]; MS11 strain, GCP broth, 10^5 CFU/mL, 37°C, 5% CO2, lowest concentration reducing >=90% of bacteria vs non-AMP control, means of three independent experiments) is given as >10 mg/L. The “MIC of AMP” value [3] was >20 mg/L.
With “FIHHIIGGLFSAGKAIHRLIRRRRR [TP4] [listing 2 of 2 here]” the “MIC of AMP” value [3] was 10 mg/L.
For Pardaxin, the Inhibition of cells [10] is listed as “not” and the Concentration inhibiting cells [11] is listed as ≥ 15 µg/mL.
